Laboratory results published in patent US9707229B2, “Compositions and methods for treating an infection” (CMPD LICENSING, LLC, priority 2015, dated 2017).

Experiments:
Type in all cases: cell-based
[1] = test system: Haemophilus influenzae; experiment: Expected efficacy of antibiotic agents; conditions: Gram: neg
[2] = test system: Neisseria meningitidis; experiment: Expected efficacy of antibiotic agents; conditions: Gram: neg
[3] = test system: Enterobacter sakazakii; experiment: Expected efficacy of antibiotic agents; conditions: Gram: neg
[4] = test system: Enterobacter cloacae; experiment: Expected efficacy of antibiotic agents; conditions: Gram: neg
[5] = test system: Proteus vulgaris; experiment: Expected efficacy of antibiotic agents; conditions: Gram: neg
[6] = test system: Chlamydia psittaci; conditions: expected efficacy; Gram: n/a
[7] = test system: Viridans group streptococci; experiment: Expected efficacy of antibiotic agents; conditions: Gram: pos
[8] = test system: Streptococcus pyogenes; experiment: Expected efficacy of antibiotic agents; conditions: Gram: pos
[9] = test system: Escherichia coli; experiment: Expected efficacy of antibiotic agents; conditions: Gram: neg
[10] = test system: Chlamydia trachomatis; experiment: Expected efficacy of antibiotic agents; conditions: Gram: n/a
[11] = test system: Acinetobacter lwoffii; experiment: Expected efficacy of antibiotic agents; conditions: Gram: neg
[12] = test system: Staphylococcus epidermidis; experiment: Expected efficacy of antibiotic agents; conditions: Gram: pos
[13] = test system: Vibrio cholerae; experiment: Expected efficacy of antibiotic agents; conditions: Gram: neg
[14] = test system: Acinetobacter calcoaceticus; experiment: Expected efficacy of antibiotic agents; conditions: Gram: neg
[15] = test system: Shigella flexneri; experiment: Expected efficacy of antibiotic agents; conditions: Gram: neg
[16] = test system: Morganella morganii; experiment: Expected efficacy of antibiotic agents; conditions: Gram: neg
[17] = test system: Staphylococcus aureus (MSSA); experiment: Expected efficacy of antibiotic agents; conditions: Gram: pos
[18] = test system: Klebsiella pneumoniae; experiment: Expected efficacy of antibiotic agents; conditions: Gram: neg
[19] = test system: Mycoplasma pneumoniae; experiment: Expected efficacy of antibiotic agents; conditions: Gram: n/a
[20] = test system: Salmonella typhi; experiment: Expected efficacy of antibiotic agents; conditions: Gram: neg
[21] = test system: Providencia rettgeri; experiment: Expected efficacy of antibiotic agents; conditions: Gram: neg
[22] = test system: Legionella pneumophila; conditions: expected efficacy; Gram: neg
[23] = test system: Klebsiella oxytoca; experiment: Expected efficacy of antibiotic agents; conditions: Gram: neg
[24] = test system: Haemophilus parainfluenzae; experiment: Expected efficacy of antibiotic agents; conditions: Gram: neg
[25] = test system: Serratia marcescens; experiment: Expected efficacy of antibiotic agents; conditions: Gram: neg
[26] = test system: Streptococcus pneumoniae; experiment: Expected efficacy of antibiotic agents; conditions: Gram: pos
[27] = test system: Chlamydia pneumoniae; experiment: Expected efficacy of antibiotic agents; conditions: Gram: n/a
[28] = test system: Peptostreptococcus; experiment: Expected efficacy of antibiotic agents; conditions: Gram: pos
[29] = test system: Campylobacter jejuni; experiment: Expected efficacy of antibiotic agents; conditions: Gram: neg
[30] = test system: Rickettsiae; conditions: expected efficacy; Gram: neg
[31] = test system: Moraxella catarrhalis; experiment: Expected efficacy of antibiotic agents; conditions: Gram: neg
[32] = test system: Shigella sonnei; experiment: Expected efficacy of antibiotic agents; conditions: Gram: neg
[33] = test system: Acinetobacter baumannii; experiment: Expected efficacy of antibiotic agents; conditions: Gram: neg
[34] = test system: Proteus mirabilis; experiment: Expected efficacy of antibiotic agents; conditions: Gram: neg
[35] = test system: Francisella tularensis; conditions: expected efficacy; Gram: neg
[36] = test system: Corynebacterium urealyticum; experiment: Expected efficacy of antibiotic agents; conditions: Gram: pos
[37] = test system: Enterobacter aerogenes; experiment: Expected efficacy of antibiotic agents; conditions: Gram: neg
[38] = test system: Klebsiella (Calymmatobacterium) granulomatis; experiment: Expected efficacy of antibiotic agents; conditions: Gram: neg
[39] = test system: Neisseria gonorrhoeae; experiment: Expected efficacy of antibiotic agents; conditions: Gram: neg
[40] = test system: Shigella dysenteriae; experiment: Expected efficacy of antibiotic agents; conditions: Gram: neg
[41] = test system: Clostridium perfringens; conditions: expected efficacy; Gram: anaer
[42] = test system: Corynebacterium jeikeium; experiment: Expected efficacy of antibiotic agents; conditions: Gram: pos
[43] = test system: Shigella boydii; experiment: Expected efficacy of antibiotic agents; conditions: Gram: neg
[44] = test system: Enterococcus faecalis; experiment: Expected efficacy of antibiotic agents; conditions: Gram: pos
[45] = test system: Providencia stuartii; experiment: Expected efficacy of antibiotic agents; conditions: Gram: neg
[46] = test system: Diphtheroids; experiment: Expected efficacy of antibiotic agents; conditions: Gram: pos
[47] = test system: Methicillin resistant staph aureus (MRSA); experiment: Expected efficacy of antibiotic agents; conditions: Gram: pos
[48] = test system: Bacteroides fragilis; experiment: Expected efficacy of antibiotic agents; conditions: Gram: anaer
[49] = test system: Citrobacter freundii; experiment: Expected efficacy of antibiotic agents; conditions: Gram: neg
[50] = test system: Enterococcus faecium; experiment: Expected efficacy of antibiotic agents; conditions: Gram: pos
[51] = test system: Bordetella pertussis; experiment: Expected efficacy of antibiotic agents; conditions: Gram: neg
[52] = test system: Clostridium difficile; experiment: Expected efficacy of antibiotic agents; conditions: Gram: anaer
[53] = test system: Citrobacter diversus; experiment: Expected efficacy of antibiotic agents; conditions: Gram: neg
[54] = test system: Yersinia pestis; conditions: expected efficacy; Gram: neg
[55] = test system: Pseudomonas aeruginosa; experiment: Expected efficacy of antibiotic agents; conditions: Gram: neg
[56] = test system: Streptococcus agalactiae; experiment: Expected efficacy of antibiotic agents; conditions: Gram: pos
[57] = test system: Haemophilus ducreyi; experiment: Expected efficacy of antibiotic agents; conditions: Gram: neg

CO/N=C(\C(=O)N[C@@H]1C(=O)N2C(C(=O)O)=C(CSc3nc(=O)c(=O)[nH]n3C)CS[C@H]12)c1csc(N)n1 [Ceftriaxone]
no: efficacy against Chlamydia psittaci [6] | efficacy against Chlamydia trachomatis [10] | efficacy against Acinetobacter lwoffii [11] | efficacy against Vibrio cholerae [13] | efficacy against Acinetobacter calcoaceticus [14] | efficacy against Mycoplasma pneumoniae [19] | efficacy against Legionella pneumophila [22] | efficacy against Chlamydia pneumoniae [27] | efficacy against Campylobacter jejuni [29] | efficacy against Rickettsiae [30] | efficacy against Acinetobacter baumannii [33] | efficacy against Francisella tularensis [35] | efficacy against Corynebacterium urealyticum [36] | efficacy against Corynebacterium jeikeium [42] | efficacy against Enterococcus faecalis [44] | efficacy against Diphtheroids [46] | efficacy against Methicillin resistant staph aureus (MRSA) [47] | efficacy against Enterococcus faecium [50] | efficacy against Bordetella pertussis [51] | efficacy against Clostridium difficile [52] | efficacy against Yersinia pestis [54] | efficacy against Pseudomonas aeruginosa [55]
yes: efficacy against Haemophilus influenzae [1] | efficacy against Neisseria meningitidis [2] | efficacy against Enterobacter sakazakii [3] | efficacy against Enterobacter cloacae [4] | efficacy against Proteus vulgaris [5] | efficacy against Viridans group streptococci [7] | efficacy against Streptococcus pyogenes [8] | efficacy against Escherichia coli [9] | efficacy against Staphylococcus epidermidis [12] | efficacy against Shigella flexneri [15] | efficacy against Morganella morganii [16] | efficacy against Staphylococcus aureus (MSSA) [17] | efficacy against Klebsiella pneumoniae [18] | efficacy against Salmonella typhi [20] | efficacy against Providencia rettgeri [21] | efficacy against Klebsiella oxytoca [23] | efficacy against Haemophilus parainfluenzae [24] | efficacy against Serratia marcescens [25] | efficacy against Streptococcus pneumoniae [26] | efficacy against Peptostreptococcus [28] | efficacy against Moraxella catarrhalis [31] | efficacy against Shigella sonnei [32] | efficacy against Proteus mirabilis [34] | efficacy against Enterobacter aerogenes [37] | efficacy against Klebsiella (Calymmatobacterium) granulomatis [38] | efficacy against Neisseria gonorrhoeae [39] | efficacy against Shigella dysenteriae [40] | efficacy against Clostridium perfringens [41] | efficacy against Shigella boydii [43] | efficacy against Providencia stuartii [45] | efficacy against Bacteroides fragilis [48] | efficacy against Citrobacter freundii [49] | efficacy against Citrobacter diversus [53] | efficacy against Streptococcus agalactiae [56] | efficacy against Haemophilus ducreyi [57]
